Assay results taken from the supplement of paper PMC8253809.

What was measured:
[1] = tested on: SUDIPGXVII (diffuse intrinsic pontine glioma line); test: area under dose-response curve of % growth inhibition (log2 RLU vs DMSO / staurosporine), 1e-11 to 1e-4 M (% x log10 M); higher = more growth inhibition
Procedure, shortened: (§1)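 Cells were exposed in triplicate for 7 days (iAstro: 3 days) at 37 °C, 5% CO2 to a 10-point series of threefold dilutions with a mean top concentration of 35 μM. These were patient-derived pHGG/DIPG lines plus astrocytes, grown on 384-well plates coated with 1% Geltrex. Readout was CellTiter-Glo luminescence, log2-transformed and set per plate to % activity between solvent and positive controls, from which area under the curve was derived by trapezoid rule on a log-logistic fit or, failing that, a smoothing spline.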

[2] = tested on: HGGX6 (H3.3 G34R paediatric high-grade glioma line); test: as above
Procedure, shortened: as §1

[3] = tested on: SUDIPGVI (diffuse intrinsic pontine glioma line); test: as above
Procedure, shortened: as §1

[4] = tested on: SUDIPGIV (diffuse intrinsic pontine glioma line); test: as above
Procedure, shortened: as §1

[5] = tested on: HGGX39 (paediatric high-grade glioma line); test: as above
Procedure, shortened: as §1

[6] = tested on: HGGX42 (H3.3 G34R paediatric high-grade glioma line); test: as above
Procedure, shortened: as §1

[7] = tested on: DIPGX37 (H3.3 K27M diffuse intrinsic pontine glioma line); test: as above
Procedure, shortened: as §1

[8] = tested on: DIPGX7 (H3.3 K27M diffuse intrinsic pontine glioma line); test: as above
Procedure, shortened: as §1

[9] = tested on: HGGX2 (paediatric high-grade glioma line); test: as above
Procedure, shortened: as §1

[10] = tested on: DIPGX29 (H3.3 K27M diffuse intrinsic pontine glioma line); test: as above
Procedure, shortened: as §1

[11] = tested on: DIPGX9 (diffuse intrinsic pontine glioma line); test: as above
Procedure, shortened: as §1

[12] = tested on: SUDIPGXIX (diffuse intrinsic pontine glioma line); test: as above
Procedure, shortened: as §1

[13] = tested on: SUDIPGXXI (diffuse intrinsic pontine glioma line); test: as above
Procedure, shortened: as §1

[14] = tested on: iAstro (astrocyte control); test: as above
Procedure, shortened: as §1

[15] = tested on: SUDIPGXIII (diffuse intrinsic pontine glioma line); test: as above
Procedure, shortened: as §1

[16] = tested on: HABS (astrocyte control); test: as above
Procedure, shortened: as §1

[17] = tested on: SUDIPGXVII; test: maximal growth inhibition (yFin) relative to DMSO / staurosporine; higher = more efficacious
Procedure, shortened: (§2)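 EC50 and maximal response (yFin) were derived from the lowest-AICc fit, either three- or four-parameter log-logistic. The data were pooled CellTiter-Glo luminescence values, log2-transformed and normalised per plate to % activity between negative (solvent) and positive controls. Patient-derived pHGG/DIPG cell lines and astrocyte controls on 1% Geltrex-coated 384-well plates received a 10-point threefold dilution series (mean top concentration 35 μM) by pin tool, in triplicate, for 7 days (iAstro 3 days) at 37 °C, 5% CO2.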

[18] = tested on: HGGX6; test: as above
Procedure, shortened: as §2

[19] = tested on: SUDIPGVI; test: as above
Procedure, shortened: as §2

[20] = tested on: SUDIPGIV; test: as above
Procedure, shortened: as §2

[21] = tested on: HGGX39; test: as above
Procedure, shortened: as §2

[22] = tested on: HGGX42; test: as above
Procedure, shortened: as §2

[23] = tested on: DIPGX37; test: as above
Procedure, shortened: as §2

[24] = tested on: HGGX2; test: as above
Procedure, shortened: as §2

[25] = tested on: DIPGX29; test: as above
Procedure, shortened: as §2

[26] = tested on: DIPGX9; test: as above
Procedure, shortened: as §2

[27] = tested on: SUDIPGXIX; test: as above
Procedure, shortened: as §2

[28] = tested on: SUDIPGXXI; test: as above
Procedure, shortened: as §2

[29] = tested on: SUDIPGXIII; test: as above
Procedure, shortened: as §2

SMILES	area under dose-response curve [1]	area under dose-response curve [2]	area under dose-response curve [3]	area under dose-response curve [4]	area under dose-response curve [5]	area under dose-response curve [6]	area under dose-response curve [7]	area under dose-response curve [8]	area under dose-response curve [9]	area under dose-response curve [10]	area under dose-response curve [11]	area under dose-response curve [12]	area under dose-response curve [13]	area under dose-response curve [14]	area under dose-response curve [15]	area under dose-response curve [16]	maximal growth inhibition [17] [%]	maximal growth inhibition [18] [%]	maximal growth inhibition [19] [%]	maximal growth inhibition [20] [%]	maximal growth inhibition [21] [%]	maximal growth inhibition [22] [%]	maximal growth inhibition [23] [%]	maximal growth inhibition [24] [%]	maximal growth inhibition [25] [%]	maximal growth inhibition [26] [%]	maximal growth inhibition [27] [%]	maximal growth inhibition [28] [%]	maximal growth inhibition [29] [%]
CCNC(=O)c1noc(-c2cc(C(C)C)c(O)cc2O)c1-c1ccc(CN2CCOCC2)cc1 [NVP-AUY922]	218	99.4	118	183	275	147	285	94.5	180	204	294	274	318	118	213	285	63.9	29.6	35.2	55.9	80.3	34.4	82.2	49.9	80.4	84.4	76.3	115	61.3
CCCS(=O)(=O)c1nc(NC2CC2)cc(-c2ccc3c(ccn3C3CC(C)(C)NC(C)(C)C3)c2)n1 [NVS-1]	154	145	158	138	130	185	159	166	169	172	152	174	140	143	163	124	88.4	79.3	88.4	90.5	82.8	88.2	79.6	86.7	82.2	88.9	90.7	104	88.4
COC1=CC(c2cc3ccccc3[nH]2)=N/C1=C\c1[nH]c(C)cc1C [OBATOCLAX]	128	136	210	177	165	196	167	219	217	174	177	216	280	141	128	138	128	123	128	131	124	119	128	115	126	131	143	127	108
COc1ncc(-c2ccc3nccc(-c4ccnnc4)c3c2)cc1NS(=O)(=O)c1ccc(F)cc1F [OMIPALISIB]	251	193	257	245	224	237	290	248	263	219	366	326	366	64	225	262	111	110	112	110	115	99.4	116	105	105	104	108	118	108
C[C@@H]1O[C@@H](O[C@H]2C[C@@H](O)[C@]3(CO)[C@H]4[C@H](O)C[C@]5(C)[C@@H](C6=CC(=O)OC6)CC[C@]5(O)[C@@H]4CC[C@]3(O)C2)[C@H](O)[C@H](O)[C@H]1O [OUABAIN]	186	173	123	284	218	127	126	279	173	175	168	202	251	135	107	133	73.5	64.9	60.1	103	75.1	53.3	46.7	63.9	53.4	70.1	83.6	90.6	46.9
Cc1[nH]c2ccccc2c1CCNCc1ccc(/C=C/C(=O)NO)cc1 [PANOBINOSTAT]	244	216	249	252	212	282	220	243	253	228	287	293	355	134	195	272	90.9	73.9	86.9	86.4	75.6	95.5	76.5	90	76.5	90.7	106	110	93.9
OC1(c2ccc(Cl)c(C(F)(F)F)c2)CCN(CCCC(c2ccc(F)cc2)c2ccc(F)cc2)CC1 [PENFLURIDOL]	126	104	126	152	113	160	126	163	175	135	147	149	201	136	110	78.4	95.6	84.9	98.5	97.2	91	98.5	93.5	98.9	94.8	105	97.4	106	92.8
Cc1ccc(C(=O)Nc2ccc(CN3CCN(C)CC3)c(C(F)(F)F)c2)cc1C#Cc1cnc2cccnn12 [PONATINIB]	125	155	119	102	148	164	141	155	163	134	252	132	345	128	132	194	101	97.4	97.8	100	99.3	99	101	99.6	104	94.2	99.8	97.2	96
O=C(Nc1ccccc1-c1cn2c(CN3CCNCC3)csc2n1)c1cnc2ccccc2n1 [SRT1720]	96.6	102	154	146	103	152	113	143	158	110	146	139	178	131	122	91.1	99.2	90.5	93.9	104	95.5	102	94.6	99.1	94.6	103	104	105	94.6
CCN(CC)CCNC(=O)c1c(C)[nH]c(/C=C2\C(=O)Nc3ccc(F)cc32)c1C [SUNITINIB]	128	95.1	124	99.2	100	193	103	123	141	97.9	129	135	176	113	144	122	120	107	108	119	105	112	101	108	103	117	129	115	113
C=CCNC1=C2C[C@@H](C)C[C@H](OC)[C@H](O)[C@@H](C)/C=C(\C)[C@H](OC(N)=O)[C@@H](OC)/C=C\C=C(/C)C(=O)NC(=CC1=O)C2=O [TANESPIMYCIN]	89.8	59.6	42.2	138	242	103	312	89.8	83	132	309	214	223	50.9	80.1	161	74.7	33.9	39.8	72.4	97.3	50.5	104	84.8	70	108	92.1	122	73.1
CN(C)C/C=C/C(=O)Nc1ccc(C(=O)Nc2cccc(Nc3ncc(Cl)c(-c4c[nH]c5ccccc45)n3)c2)cc1 [THZ1]	329	267	345	342	272	360	302	356	349	301	372	343	460	186	308	284	87.2	81.5	85.3	87.4	86.2	110	81.3	97.5	87.4	88.7	84.4	107	85
